According to PubChem BioAssay AID743417 (Broad Institute, 2014):
Records with an inconclusive call do not appear.

These molecules were tested on Clone20 osteoblast Shn3 3'UTR firefly luciferase, 24 h (assay: Schnurri-3 3'UTR-luciferase signal suppressors – cell-based, Clone20 osteoblasts, luminescence, dry powder, set 2, dose response (AID 743417)).

Row | Compound | AC50
1 | O=C(Nc1ccc2nc3n(c(=O)c2c1)CCCCC3)c1c(F)ccc([N+](=O)[O-])c1F | 2.3 µM
2 | CCCn1c(NC(=O)c2ccc(Cl)c(S(=O)(=O)N3CCCC3)c2)nc2ccccc21 | 8.39 µM
3 | Cc1cccc(-n2ncc(Cl)c(Cl)c2=O)c1 | 5.8 µM
4 | COc1ccc(CNc2ncnc3c2[nH]c2ccccc23)cc1 | 4.19 µM
5 | CN(C)c1ccc(C=c2c3cc([N+](=O)[O-])ccc3n3c2cc(-c2ccccc2)[n+]3C)cc1 | 3.3 µM
6 | O=C1CC(c2ccccc2)CC(O)=C1C=Nc1cccc(Cl)c1 (configuration not stated) | 4.94 µM
7 | CN(c1ccccc1)S(=O)(=O)c1cccc(NC(=O)c2ccc3ncsc3c2)c1 | 17.2 µM
8 | COC(=O)c1c(-c2cccc3ccccc23)csc1NC(=O)Cc1ccc(OC)c(OC)c1 | 5.43 µM
9 | CCOC(=O)c1sc(NC(=O)CCCn2nc([N+](=O)[O-])c(Cl)c2C)c(C(=O)OCC)c1C | 6.34 µM
10 | O=C(c1ccccc1)C(CN1CCCCC1)c1ccccc1 (configuration not stated) | 2.41 µM
11 | CN(c1cccc(Cl)c1)S(=O)(=O)c1cccc(C(=O)NCc2ccncc2)c1 | < 0.26 µM
12 | CCn1c(/C=C/c2ccc([N+](=O)[O-])o2)nc2ccccc2c1=O | 4.51 µM
13 | Cc1cc(C(=O)NC2CCCc3c2cnn3-c2ccc(C)c(C)c2)n(C)n1 (configuration not stated) | < 0.26 µM
14 | O=C1NC2C(=CC(O)C(O)C2O)c2cc3c(cc21)OCO3 (configuration not stated) | 2.22 µM
15 | O=S(=O)(c1cc(F)ccc1F)N1CCN(c2ncnc3ccccc23)CC1 | 1.85 µM
16 | COc1ccc(CC(N)c2csc(NC(=O)Nc3ccc(C(C)C)cc3)n2)cc1 (configuration not stated) | 5.16 µM
17 | Cn1c(=O)n(C)c2cc([N+](=O)[O-])c(N3CCN(S(=O)(=O)c4ccc(C(C)(C)C)cc4)CC3)cc21 | 3.53 µM
18 | COc1cccc(N2CCN(c3ncnc4c3cnn4-c3ccc(C)cc3C)CC2)c1 | 4.65 µM
19 | CC(=O)Oc1ccc(OC(C)=O)c(SCCCCCCl)c1 | 2.58 µM
20 | CC(=O)N1CCCc2cc(S(=O)(=O)N3CCCC(C(=O)N4CCN(c5cccc(Cl)c5)CC4)C3)ccc21 (configuration not stated) | 1.9 µM
21 | O=[N+]([O-])c1ccc(Sc2cccc3cccnc23)c([N+](=O)[O-])c1 | 1.71 µM
22 | CCOC(=O)c1c(NC(=O)c2nn(CC)cc2Br)sc(C)c1C | 11 µM
23 | COc1ccc(CN2CCC(C(=O)Nc3ccc(Oc4cccnc4)cc3)CC2)c(C)c1C | 3.68 µM
24 | Cc1ccc(Cn2c(=N)n(CC(O)COc3ccccc3)c3ccccc32)cc1 (configuration not stated) | 2.46 µM
25 | COc1ccccc1-c1cc(C(F)(F)F)nc(S(=O)(=O)CCCC(=O)NCc2ccc(F)cc2)n1 | 4.43 µM
26 | O=C(c1ccccc1)C(CCC(CN1CCOCC1)C(=O)c1ccccc1)CN1CCOCC1 (configuration not stated) | 12.8 µM

Row | Compound | AC50
27 | COc1ccc(C)c2sc(N(CCCN(C)C)C(=O)c3ccc(S(=O)(=O)N4CCc5ccccc5C4)cc3)nc12 | 4.4 µM
28 | Cc1ccc(S(=O)(=O)N2CCN(c3ncnc4sccc34)CC2)cc1 | 2.72 µM
29 | CCCCC(=O)NC(c1ccc(OC)c(OC)c1)c1ccc2cccnc2c1O (configuration not stated) | 1.36 µM
30 | CCOC(=O)C1CCN(S(=O)(=O)c2c(Cl)ccc3nonc23)CC1 | 0.919 µM
31 | CC(NC(=O)c1cc(COc2ccc3ncccc3c2)on1)c1ccc(F)cc1 (configuration not stated) | 2.28 µM
32 | O=C(Nc1ccc(N2CCOCC2)c(Cl)c1)c1ccc([N+](=O)[O-])o1 | 6.23 µM
33 | CCN(CC)S(=O)(=O)c1ccc(N(C)Cc2ccc(C(F)(F)F)cc2)nc1 | 5.85 µM
34 | CCOc1cc(N2CCOCC2)c(OCC)cc1NC(=O)c1cc(-c2ccco2)nc2ccccc12 | 8.94 µM
35 | Cc1ccc(CNC(=O)c2ccc3c(=O)c(O)c(-c4ccc(C)cc4)[nH]c3c2)cc1 | 2.82 µM
36 | Cc1ccc(C(=O)/C=C/c2ccc(-c3ccc(C)cc3)o2)cc1 | 2.79 µM
37 | O=C(Sc1cccc2cccnc12)c1ccccc1Br | 0.383 µM
38 | NC(=O)CC(NC(=O)c1ccccc1)c1ccc(N2CCC(Cc3ccccc3)CC2)c([N+](=O)[O-])c1 (configuration not stated) | 2.61 µM
39 | COc1ccc(NS(=O)(=O)c2cccc(NC(=O)c3ccc(S(=O)(=O)N4CCCCCC4)cc3)c2)cc1 | 0.829 µM
40 | Cc1cc(C)c(O)c(-c2cc(C(=O)Nc3ccc(S(=O)(=O)N4CCOCC4)cc3)[nH]n2)c1 | 5.48 µM
41 | CN(C)C1=NC[C@H](Cc2ccccc2)N1CCCCc1ccccc1 | 8.01 µM
42 | CCCc1nc2ccc(Br)cc2c(=O)n1-c1ccc([N+](=O)[O-])c(C(F)(F)F)c1 | 15.7 µM
43 | O=C(Nc1ccc(Oc2ccccc2)cc1)C1CCN(c2c3c(nc4ncnn24)CCC3)CC1 | 5.64 µM
44 | Oc1cc(-c2cccnc2)cc2cccnc12 | 9.27 µM
45 | CC(=O)c1cccc(-c2csc3ncnc(Sc4nnnn4C)c23)c1 | 4.72 µM
46 | Cc1ccc(-c2nnc(N3CCC(C)CC3)c3ccccc23)cc1C | 6.41 µM
47 | CS(=O)(=O)c1ccc(C(=O)OCC(=O)NCc2cccs2)cc1[N+](=O)[O-] | 2.07 µM
48 | COC(=O)c1ccc(N2CCN(S(=O)(=O)c3ccc(C)cc3)CC2)c([N+](=O)[O-])c1 | 3.88 µM
49 | CCCCCCn1c(NCC)nc2c1c(=O)n(C)c(=O)n2C | 0.834 µM
50 | O=C(Nc1ccc(F)cc1)Nc1cc(OCC(F)(F)F)cc(OCC(F)(F)F)c1 | 2.46 µM
51 | CC(=O)OCCCNc1cc(Sc2nc3ccccc3s2)c2nonc2c1[N+](=O)[O-] | 4.7 µM
52 | COc1ccc(Cn2c(SCc3cc(C)ccc3C)nc3cc(OC)c(OC)cc3c2=N)cc1 | 7.91 µM
